Measured values taken from patent US4112228A, “7-(D-α-Hydroxy-2-arylacetamido)-3-(2-carboxyalkyl-2,3-dihydro-s-tri azolo-[4,3-b]pyridazin-3-on-6-ylthiomethyl)-3-cephem-4-carboxylic acids and derivatives” (priority 1977, dated 1978).
In brackets after ≈: the same amount, converted by molar mass.

Columns and labels:
S. aureus = assay: MIC by Steers' agar dilution method; type: cell-based; settings: Staphylococcus aureus
B. anthracis = assay: microbe, parasite or virus in culture; type: cell-based; settings: Bacillus anthracis
Pr. morganii = assay: MIC by Steers' agar dilution method; settings: Morganella morganii
bacteria of Table 4 = assay: Media effect on MIC (Nutrient, Mueller-Hinton, Heart-Infusion agar); type: cell-based; settings: NA, MHA, HIA
Ps. aeruginosa = assay: MIC by Steers' agar dilution method; settings: Pseudomonas aeruginosa
Citrobacter sp. = assay: MIC by Steers' agar dilution method
D. pneumoniae = assay: MIC by Steers' agar dilution method
[1] = strain not given (1st of 2), MHA, Example 10
[2] = strain not named (2nd of 2), MHA, Example 10

## Cn1nnnc1SCC1=C(C(=O)O)N2C(=O)[C@@H](NC(=O)[C@H](O)c3ccccc3)[C@H]2SC1 [Cefamandole, cefamandole, reference compound]
S. aureus; A9497, MHA, Table 1
  MIC: 0.05 µg/mL (≈ 0.108 µM)
S. aureus; BX-1633, MHA, Example 10
  MIC: 0.4 µg/mL (≈ 0.865 µM)
S. aureus; BX-1633 A9606, MHA, Table 1
  MIC: 0.1 µg/mL (≈ 0.216 µM)
S. aureus; Sa-2 Smith A9537, HIA, Table 4
  MIC: 0.2 µg/mL (≈ 0.432 µM)
S. aureus; Sa-2 Smith A9537, MHA, Table 2
  MIC: 0.2 µg/mL (≈ 0.432 µM)
S. aureus; Sa-2 Smith A9537, MHA, Table 4
  MIC: 0.2 µg/mL (≈ 0.432 µM)
S. aureus; Sa-2 Smith A9537, NA, Table 4
  MIC: 0.2 µg/mL (≈ 0.432 µM)
S. aureus; Sa-3 No. 193, MHA, Table 2
  MIC: 0.2 µg/mL (≈ 0.432 µM)
S. aureus; Sa-8, MHA, Table 2
  MIC: 0.2 µg/mL (≈ 0.432 µM)
S. aureus; Sa-9 No. 193, MHA, Table 2
  MIC: 0.2 µg/mL (≈ 0.432 µM)
S. aureus; Sa-10 A20239, MHA, Table 2
  MIC: 0.4 µg/mL (≈ 0.865 µM)
S. aureus; Sa-11 BX-1633 A9606 (β-lactamase), HIA, Table 4
  MIC: 0.4 µg/mL (≈ 0.865 µM)
S. aureus; Sa-11 BX-1633 A9606 (β-lactamase), MHA, Table 4
  MIC: 0.4 µg/mL (≈ 0.865 µM)
S. aureus; Sa-11 BX-1633 A9606 (β-lactamase), NA, Table 4
  MIC: 0.4 µg/mL (≈ 0.865 µM)
S. aureus; Sa-11 BX-1633 A9606, MHA, Table 2
  MIC: 0.2 µg/mL (≈ 0.432 µM)
S. aureus; Sa-12 A9497, MHA, Table 2
  MIC: 0.1 µg/mL (≈ 0.216 µM)
S. aureus; Sa-29 No. 193, MHA, Table 2
  MIC: 0.8 µg/mL (≈ 1.73 µM)
S. aureus; Sa-33 Terajima, MHA, Table 2
  MIC: 0.0125 µg/mL (≈ 0.027 µM)
S. aureus; Sa-34 A15092, MHA, Table 2
  MIC: 0.2 µg/mL (≈ 0.432 µM)
S. aureus; Sa-35 A15094, MHA, Table 2
  MIC: 0.4 µg/mL (≈ 0.865 µM)
S. aureus; Sa-36 Russell, MHA, Table 2
  MIC: 0.4 µg/mL (≈ 0.865 µM)
S. aureus; Sa-37 A9524, MHA, Table 2
  MIC: 0.8 µg/mL (≈ 1.73 µM)
S. aureus; Sa-38 A9534, MHA, Table 2
  MIC: 0.2 µg/mL (≈ 0.432 µM)
S. aureus; Sa-39 A9578, MHA, Table 2
  MIC: 0.4 µg/mL (≈ 0.865 µM)
S. aureus; Sa-40 A9601, MHA, Table 2
  MIC: 0.4 µg/mL (≈ 0.865 µM)
S. aureus; Sa-41 A9602, MHA, Table 2
  MIC: 0.2 µg/mL (≈ 0.432 µM)
S. aureus; Sa-44 A15097, HIA, Table 4
  MIC: 3.1 µg/mL (≈ 6.7 µM)
S. aureus; Sa-44 A15097, MHA, Table 2
  MIC: 25 µg/mL (≈ 54.1 µM)
S. aureus; Sa-44 A15097, MHA, Table 4
  MIC: 3.1 µg/mL (≈ 6.7 µM)
S. aureus; Sa-44 A15097, NA, Table 4
  MIC: 6.3 µg/mL (≈ 13.6 µM)
S. aureus; Sa-56 A9630, MHA, Table 2
  MIC: 0.8 µg/mL (≈ 1.73 µM)
S. aureus; Sa-57 A9748, MHA, Table 2
  MIC: 3.1 µg/mL (≈ 6.7 µM)
S. aureus; Sa-58 A15033, MHA, Table 2
  MIC: 1.6 µg/mL (≈ 3.46 µM)
S. aureus; Sa-59 A15096, MHA, Table 2
  MIC: 6.3 µg/mL (≈ 13.6 µM)
S. aureus; Sa-60 A20604, MHA, Table 2
  MIC: 3.1 µg/mL (≈ 6.7 µM)
S. aureus; Sa-61 A20605, MHA, Table 2
  MIC: 6.3 µg/mL (≈ 13.6 µM)
S. aureus; Sa-62 A20606, MHA, Table 2
  MIC: 0.8 µg/mL (≈ 1.73 µM)
S. aureus; Sa-63 A20607, MHA, Table 2
  MIC: 12.5 µg/mL (≈ 27 µM)
S. aureus; Sa-64 A20608, MHA, Table 2
  MIC: 6.3 µg/mL (≈ 13.6 µM)
S. aureus; Sa-65 A20609, MHA, Table 2
  MIC: 6.3 µg/mL (≈ 13.6 µM)
S. aureus; Sa-66 A20610, MHA, Table 2
  MIC: 6.3 µg/mL (≈ 13.6 µM)
S. aureus; Sa-67 A20611, MHA, Table 2
  MIC: 6.3 µg/mL (≈ 13.6 µM)
S. aureus; Sa-68 A20612, MHA, Table 2
  MIC: 0.4 µg/mL (≈ 0.865 µM)
S. aureus; Sa-69 A20613, MHA, Table 2
  MIC: 6.3 µg/mL (≈ 13.6 µM)
S. aureus; Smith A9537, MHA, Table 1
  MIC: 0.05 µg/mL (≈ 0.108 µM)
S. aureus; Smith, MHA, Example 10
  MIC: 0.2 µg/mL (≈ 0.432 µM)
S. aureus; strain not named, MHA, Example 10
  MIC: 0.1 µg/mL (≈ 0.216 µM)
B. anthracis; Ba-3 A9504, HIA, Table 4
  MIC: 0.2 µg/mL (≈ 0.432 µM)
B. anthracis; Ba-3 A9504, MHA, Table 4
  MIC: 0.4 µg/mL (≈ 0.865 µM)
B. anthracis; Ba-3 A9504, NA, Table 4
  MIC: 0.4 µg/mL (≈ 0.865 µM)
B. anthracis; MHA, Example 10
  MIC: 0.4 µg/mL (≈ 0.865 µM)
Pr. morganii; A9553, MHA, Table 1
  MIC: > 100 µg/mL
Pr. morganii; A20031, MHA, Table 1
  MIC: 0.8 µg/mL (≈ 1.73 µM)
Pr. morganii; Pg-1 A9553 (β-lactamase), HIA, Table 4
  MIC: > 100 µg/mL
Pr. morganii; Pg-1 A9553 (β-lactamase), MHA, Table 4
  MIC: > 100 µg/mL
Pr. morganii; Pg-1 A9553 (β-lactamase), NA, Table 4
  MIC: > 100 µg/mL
Pr. morganii; Pg-1 A9553, MHA, Table 3
  MIC: > 100 µg/mL
Pr. morganii; Pg-2 A20031, HIA, Table 4
  MIC: 0.8 µg/mL (≈ 1.73 µM)
Pr. morganii; Pg-2 A20031, MHA, Table 3
  MIC: 1.6 µg/mL (≈ 3.46 µM)
Pr. morganii; Pg-2 A20031, MHA, Table 4
  MIC: 0.8 µg/mL (≈ 1.73 µM)
Pr. morganii; Pg-2 A20031, NA, Table 4
  MIC: 0.4 µg/mL (≈ 0.865 µM)
Pr. morganii; Pg-3 A9636, MHA, Table 3
  MIC: 1.6 µg/mL (≈ 3.46 µM)
Pr. morganii; Pg-5 A15166, MHA, Table 3
  MIC: 0.2 µg/mL (≈ 0.432 µM)
Pr. morganii; Pg-6 A20455 (β-lactamase), HIA, Table 4
  MIC: 3.1 µg/mL (≈ 6.7 µM)
Pr. morganii; Pg-6 A20455 (β-lactamase), MHA, Table 4
  MIC: 1.6 µg/mL (≈ 3.46 µM)
Pr. morganii; Pg-6 A20455 (β-lactamase), NA, Table 4
  MIC: 1.6 µg/mL (≈ 3.46 µM)
Pr. morganii; Pg-6 A20455, MHA, Table 3
  MIC: 1.6 µg/mL (≈ 3.46 µM)
Pr. morganii; Pg-7 A20457, MHA, Table 3
  MIC: 0.8 µg/mL (≈ 1.73 µM)
Pr. morganii; Pg-8 A15153, MHA, Table 3
  MIC: 0.8 µg/mL (≈ 1.73 µM)
Pr. morganii; Pg-9 A15149, MHA, Table 3
  MIC: 3.1 µg/mL (≈ 6.7 µM)
Pr. morganii; [1]
  MIC: > 100 µg/mL
Pr. morganii; [2]
  MIC: 0.8 µg/mL (≈ 1.73 µM)
Bacteria of Table 4
  Media effect on MIC: little media effect
Ps. aeruginosa; A9843, MHA, Table 1
  MIC: > 100 µg/mL
Ps. aeruginosa; A9930, MHA, Table 1
  MIC: > 100 µg/mL
Ps. aeruginosa; Pa-3 A9930, HIA, Table 4
  MIC: > 100 µg/mL
Ps. aeruginosa; Pa-3 A9930, MHA, Table 4
  MIC: > 100 µg/mL
Ps. aeruginosa; Pa-3 A9930, NA, Table 4
  MIC: > 100 µg/mL
Ps. aeruginosa; [1]
  MIC: > 100 µg/mL
Ps. aeruginosa; [2]
  MIC: > 100 µg/mL
Citrobacter sp.; Citrobacter
  MIC: 1.6 µg/mL (≈ 3.46 µM)
Citrobacter sp.; Cx-2 A20694, MHA, Table 3
  MIC: 1.6 µg/mL (≈ 3.46 µM)
Citrobacter sp.; Cx-3 A20695, MHA, Table 3
  MIC: 1.6 µg/mL (≈ 3.46 µM)
D. pneumoniae; Dp-2 Type I Neufeld, MHA, Table 2
  MIC: 0.2 µg/mL (≈ 0.432 µM)
D. pneumoniae; Dp-3 Type III, MHA, Table 2
  MIC: 0.2 µg/mL (≈ 0.432 µM)
D. pneumoniae; Dp-4 A9585, MHA, Table 2
  MIC: 0.2 µg/mL (≈ 0.432 µM)
D. pneumoniae; Dp-5 A15069, MHA, Table 2
  MIC: 0.2 µg/mL (≈ 0.432 µM)
D. pneumoniae; Dp-6 A20167, MHA, Table 2
  MIC: 0.2 µg/mL (≈ 0.432 µM)
D. pneumoniae; Dp-7 A20759, MHA, Table 2
  MIC: 0.2 µg/mL (≈ 0.432 µM)
D. pneumoniae; Dp-8 A20769, MHA, Table 2
  MIC: 0.2 µg/mL (≈ 0.432 µM)
D. pneumoniae; Dp-9 A20770, MHA, Table 2
  MIC: 0.2 µg/mL (≈ 0.432 µM)
D. pneumoniae; Streptococcus pneumoniae
  MIC: 0.2 µg/mL (≈ 0.432 µM)
